One block for each compound: values may come before it.
Key:
[1] = target: T1, Ephrin type-B receptor 3 (Homo sapiens) (UniProt P54753); test: Selectivity interaction (Kinase panel (Z-LYTE Assay)) EUB0001632a EPHB3; details: at 10 µM
T1 sequence (whole entry): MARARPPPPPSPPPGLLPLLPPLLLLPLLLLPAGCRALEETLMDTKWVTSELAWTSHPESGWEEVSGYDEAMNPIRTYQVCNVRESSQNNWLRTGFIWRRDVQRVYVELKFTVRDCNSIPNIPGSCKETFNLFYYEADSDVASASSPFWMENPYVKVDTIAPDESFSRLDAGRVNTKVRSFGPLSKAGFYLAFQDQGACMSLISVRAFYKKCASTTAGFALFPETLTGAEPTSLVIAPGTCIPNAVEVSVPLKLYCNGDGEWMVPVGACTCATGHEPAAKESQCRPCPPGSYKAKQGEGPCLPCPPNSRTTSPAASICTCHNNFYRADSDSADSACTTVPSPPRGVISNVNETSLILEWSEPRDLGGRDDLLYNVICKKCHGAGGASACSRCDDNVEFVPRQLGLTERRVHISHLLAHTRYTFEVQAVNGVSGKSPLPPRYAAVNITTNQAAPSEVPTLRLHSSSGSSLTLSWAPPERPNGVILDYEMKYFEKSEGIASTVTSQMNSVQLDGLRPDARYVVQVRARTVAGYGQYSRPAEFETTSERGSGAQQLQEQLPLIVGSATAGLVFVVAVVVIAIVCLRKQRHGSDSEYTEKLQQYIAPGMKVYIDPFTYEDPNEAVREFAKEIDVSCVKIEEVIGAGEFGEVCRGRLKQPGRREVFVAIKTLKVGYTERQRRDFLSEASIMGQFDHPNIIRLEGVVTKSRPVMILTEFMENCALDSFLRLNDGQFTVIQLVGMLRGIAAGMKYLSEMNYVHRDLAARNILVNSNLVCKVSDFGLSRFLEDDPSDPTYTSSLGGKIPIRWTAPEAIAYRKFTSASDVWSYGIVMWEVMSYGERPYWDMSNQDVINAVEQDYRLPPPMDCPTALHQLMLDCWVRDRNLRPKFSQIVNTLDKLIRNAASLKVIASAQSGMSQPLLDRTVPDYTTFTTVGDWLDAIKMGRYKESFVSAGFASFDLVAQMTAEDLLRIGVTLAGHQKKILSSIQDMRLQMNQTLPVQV

[2] = target: Tyrosine-protein kinase BTK (Homo sapiens, UniProt Q06187); details: at 1 µM
[3] = target: T2, Serine/threonine-protein kinase DCLK1 (Homo sapiens) (UniProt O15075); details: at 10 µM
T2 sequence (whole entry): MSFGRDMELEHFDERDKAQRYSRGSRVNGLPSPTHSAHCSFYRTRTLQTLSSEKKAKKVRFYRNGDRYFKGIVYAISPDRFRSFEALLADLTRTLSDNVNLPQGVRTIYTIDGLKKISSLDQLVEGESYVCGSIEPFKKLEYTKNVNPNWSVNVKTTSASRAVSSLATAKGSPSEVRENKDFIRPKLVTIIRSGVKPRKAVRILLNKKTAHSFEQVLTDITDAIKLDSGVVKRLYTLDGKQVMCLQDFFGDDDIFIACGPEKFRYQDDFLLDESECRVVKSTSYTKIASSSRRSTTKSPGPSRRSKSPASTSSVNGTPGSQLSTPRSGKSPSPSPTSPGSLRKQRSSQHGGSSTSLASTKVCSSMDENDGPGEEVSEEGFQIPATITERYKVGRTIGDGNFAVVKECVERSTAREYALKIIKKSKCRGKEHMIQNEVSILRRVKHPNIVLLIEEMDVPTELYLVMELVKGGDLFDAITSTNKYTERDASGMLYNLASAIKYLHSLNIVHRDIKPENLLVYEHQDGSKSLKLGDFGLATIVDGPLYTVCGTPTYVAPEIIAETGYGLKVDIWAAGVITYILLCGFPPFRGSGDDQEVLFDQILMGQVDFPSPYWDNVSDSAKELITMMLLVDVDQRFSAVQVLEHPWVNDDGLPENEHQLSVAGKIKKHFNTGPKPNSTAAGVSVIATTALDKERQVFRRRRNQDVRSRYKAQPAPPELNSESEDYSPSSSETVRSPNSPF

[4] = target: Receptor tyrosine-protein kinase erbB-2 (Homo sapiens, UniProt P04626); test: Selectivity interaction (ProQinase) EUB0000171b ERBB2
[5] = target: Calcium/calmodulin-dependent protein kinase kinase 1 (Homo sapiens) (UniProt Q8N5S9); test: Selectivity interaction (KinomeScan (DiscoverX)) EUB0000595a CAMKK1; details: at 10 µM
[6] = target: T3, MAP/microtubule affinity-regulating kinase 4 (Homo sapiens) (UniProt Q96L34); test: Selectivity interaction (Kinase panel (DSF assay)) EUB0001558a MARK4
T3 sequence (whole entry): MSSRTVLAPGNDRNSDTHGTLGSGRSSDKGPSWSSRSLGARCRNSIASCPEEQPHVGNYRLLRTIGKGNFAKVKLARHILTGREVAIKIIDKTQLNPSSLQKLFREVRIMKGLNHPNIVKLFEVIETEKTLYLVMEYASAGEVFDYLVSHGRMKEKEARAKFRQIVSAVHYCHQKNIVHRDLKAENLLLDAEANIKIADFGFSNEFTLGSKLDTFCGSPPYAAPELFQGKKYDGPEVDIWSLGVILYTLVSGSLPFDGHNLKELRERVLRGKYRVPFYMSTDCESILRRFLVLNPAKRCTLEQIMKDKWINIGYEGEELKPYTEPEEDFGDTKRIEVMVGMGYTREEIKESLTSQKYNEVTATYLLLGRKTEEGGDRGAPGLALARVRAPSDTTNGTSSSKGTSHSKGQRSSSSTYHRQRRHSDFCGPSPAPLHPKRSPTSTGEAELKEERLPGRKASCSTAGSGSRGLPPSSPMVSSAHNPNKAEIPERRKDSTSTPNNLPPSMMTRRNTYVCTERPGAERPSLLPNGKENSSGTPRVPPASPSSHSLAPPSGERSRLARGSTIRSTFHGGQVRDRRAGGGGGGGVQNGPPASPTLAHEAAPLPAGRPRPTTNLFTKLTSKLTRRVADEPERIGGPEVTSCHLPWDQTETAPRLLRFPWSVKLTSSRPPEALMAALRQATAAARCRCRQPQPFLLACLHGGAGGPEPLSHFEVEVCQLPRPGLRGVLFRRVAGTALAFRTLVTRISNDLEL

[7] = target: Cyclin-dependent kinase 16 (Homo sapiens) (UniProt Q00536); test: Selectivity interaction (KinomeScan (DiscoverX)) EUB0000618a CDK16; details: at 10 µM
Cyclin-dependent kinase 16 (Homo sapiens), sequence (Q00536 whole entry): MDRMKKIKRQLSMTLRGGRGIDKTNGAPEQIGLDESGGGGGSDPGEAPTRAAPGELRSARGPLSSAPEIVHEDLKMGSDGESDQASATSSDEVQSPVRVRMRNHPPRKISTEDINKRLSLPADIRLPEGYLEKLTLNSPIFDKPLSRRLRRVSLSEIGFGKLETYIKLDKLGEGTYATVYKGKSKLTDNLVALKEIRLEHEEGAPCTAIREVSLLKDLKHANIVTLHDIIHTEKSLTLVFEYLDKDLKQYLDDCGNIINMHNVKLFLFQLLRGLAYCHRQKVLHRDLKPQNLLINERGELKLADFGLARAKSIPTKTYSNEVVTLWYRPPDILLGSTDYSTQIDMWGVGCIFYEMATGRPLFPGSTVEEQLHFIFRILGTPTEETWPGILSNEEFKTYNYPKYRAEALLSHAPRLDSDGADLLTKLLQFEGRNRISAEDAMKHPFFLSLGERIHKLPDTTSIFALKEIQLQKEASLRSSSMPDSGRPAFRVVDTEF

Receptor tyrosine-protein kinase erbB-2, sequence (P04626 whole entry): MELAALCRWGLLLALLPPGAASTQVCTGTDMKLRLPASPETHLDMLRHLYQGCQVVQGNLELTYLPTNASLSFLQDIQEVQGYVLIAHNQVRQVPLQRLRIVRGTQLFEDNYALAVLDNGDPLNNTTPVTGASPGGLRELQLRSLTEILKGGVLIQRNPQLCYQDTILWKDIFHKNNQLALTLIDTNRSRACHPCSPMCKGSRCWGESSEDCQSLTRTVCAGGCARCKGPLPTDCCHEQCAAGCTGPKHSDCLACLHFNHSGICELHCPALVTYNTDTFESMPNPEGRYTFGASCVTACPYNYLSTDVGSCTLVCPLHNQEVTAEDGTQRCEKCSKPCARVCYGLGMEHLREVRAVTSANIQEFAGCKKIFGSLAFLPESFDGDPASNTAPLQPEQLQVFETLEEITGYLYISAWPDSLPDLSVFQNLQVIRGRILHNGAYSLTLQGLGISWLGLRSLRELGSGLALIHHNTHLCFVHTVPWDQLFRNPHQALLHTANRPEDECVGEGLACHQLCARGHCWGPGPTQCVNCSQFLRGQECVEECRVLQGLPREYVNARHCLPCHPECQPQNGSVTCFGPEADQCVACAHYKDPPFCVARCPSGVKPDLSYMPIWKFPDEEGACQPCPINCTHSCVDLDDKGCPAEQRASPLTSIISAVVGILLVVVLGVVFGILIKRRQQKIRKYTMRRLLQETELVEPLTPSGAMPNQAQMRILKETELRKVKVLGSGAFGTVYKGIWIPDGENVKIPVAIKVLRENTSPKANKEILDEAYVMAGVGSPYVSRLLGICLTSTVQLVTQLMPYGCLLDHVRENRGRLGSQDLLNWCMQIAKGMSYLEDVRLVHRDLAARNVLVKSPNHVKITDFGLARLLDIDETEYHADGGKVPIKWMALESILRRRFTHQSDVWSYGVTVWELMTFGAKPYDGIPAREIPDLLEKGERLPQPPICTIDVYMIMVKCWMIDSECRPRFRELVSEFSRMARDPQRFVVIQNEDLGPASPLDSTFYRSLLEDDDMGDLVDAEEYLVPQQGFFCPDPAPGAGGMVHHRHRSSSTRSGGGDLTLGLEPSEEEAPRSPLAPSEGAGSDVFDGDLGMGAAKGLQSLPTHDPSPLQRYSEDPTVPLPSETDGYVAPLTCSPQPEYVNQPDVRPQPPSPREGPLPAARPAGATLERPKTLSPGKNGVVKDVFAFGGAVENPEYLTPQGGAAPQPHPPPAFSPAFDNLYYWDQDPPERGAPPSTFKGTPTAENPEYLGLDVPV
Calcium/calmodulin-dependent protein kinase kinase 1 (Homo sapiens), sequence (Q8N5S9 whole entry, looked up): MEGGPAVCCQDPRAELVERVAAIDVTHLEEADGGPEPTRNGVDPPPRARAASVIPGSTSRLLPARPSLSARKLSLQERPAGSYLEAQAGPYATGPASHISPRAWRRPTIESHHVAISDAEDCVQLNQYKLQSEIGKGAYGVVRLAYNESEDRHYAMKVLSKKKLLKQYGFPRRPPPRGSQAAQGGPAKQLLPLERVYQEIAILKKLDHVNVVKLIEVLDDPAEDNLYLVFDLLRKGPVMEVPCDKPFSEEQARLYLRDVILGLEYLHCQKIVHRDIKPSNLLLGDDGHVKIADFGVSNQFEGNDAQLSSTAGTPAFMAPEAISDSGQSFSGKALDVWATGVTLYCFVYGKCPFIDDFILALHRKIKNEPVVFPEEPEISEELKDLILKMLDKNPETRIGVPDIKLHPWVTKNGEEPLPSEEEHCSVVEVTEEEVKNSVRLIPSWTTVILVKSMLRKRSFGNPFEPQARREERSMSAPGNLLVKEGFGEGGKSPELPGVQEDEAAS
Tyrosine-protein kinase BTK, sequence (Q06187 whole entry): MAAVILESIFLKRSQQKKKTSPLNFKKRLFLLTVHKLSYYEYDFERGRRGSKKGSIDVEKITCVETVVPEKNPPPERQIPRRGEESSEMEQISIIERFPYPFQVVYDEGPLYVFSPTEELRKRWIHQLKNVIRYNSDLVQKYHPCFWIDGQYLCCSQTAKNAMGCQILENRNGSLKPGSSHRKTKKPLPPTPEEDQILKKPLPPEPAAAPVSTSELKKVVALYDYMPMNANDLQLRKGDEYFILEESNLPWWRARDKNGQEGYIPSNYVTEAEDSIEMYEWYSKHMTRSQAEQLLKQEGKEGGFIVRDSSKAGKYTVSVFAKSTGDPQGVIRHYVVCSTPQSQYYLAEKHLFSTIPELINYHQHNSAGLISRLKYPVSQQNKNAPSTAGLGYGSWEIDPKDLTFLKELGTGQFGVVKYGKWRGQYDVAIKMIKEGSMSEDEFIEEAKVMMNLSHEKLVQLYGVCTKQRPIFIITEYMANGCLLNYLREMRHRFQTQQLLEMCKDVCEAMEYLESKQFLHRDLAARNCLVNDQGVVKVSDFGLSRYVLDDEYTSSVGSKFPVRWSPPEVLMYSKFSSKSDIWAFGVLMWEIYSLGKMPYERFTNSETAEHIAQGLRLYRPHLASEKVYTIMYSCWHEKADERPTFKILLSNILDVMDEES

SMILES: C=CC(=O)Nc1cccc(C(=O)Nc2ccc(Nc3cc(-c4[nH]c(SC)nc4C)ccn3)cc2)c1
% of control ([4]; at 1 µM): 92%
% of control ([4]; at 5 µM): 94%

SMILES: COCC(=O)NC/C=C/c1ccc2ncnc(Nc3ccc(Oc4ccc(C)nc4)c(C)c3)c2c1 [CP-724714]
% of control [5]: 96%

SMILES: CC(C)(O)[C@H](F)CN1Cc2cc(NC(=O)c3cnn4cccnc34)c(N3CCOCC3)cc2C1=O
dTM [6]: 1.6 K

SMILES: O[C@H]1CC[C@H](Nc2ncc3nc(Nc4c(F)cc(F)cc4F)n([C@H]4CCOC4)c3n2)CC1
% of control [7]: 100%

More lines, now with the values ahead:

% of control [1]: 2.4%
SMILES: Cn1cc(-n2cnc3c(NCc4nc5cc(Cl)c(Cl)cc5[nH]4)nc(N4CCOCC4)nc32)cn1

% of control [2]: 2.9%
SMILES: Cc1cc(-c2ccnc(Nc3cnn(C)c3)n2)ccc1CNC(=O)N1CC(OC(C)C)C1

% of control [3]: 100%
SMILES: CCN(CC)CCCCNc1ncc2cc(-c3cc(OC)cc(OC)c3)c(NC(=O)NC(C)(C)C)nc2n1
